Counter-ions that a name gives are not always drawn.
What follows are compounds tested against GST-Syk Full Protein (human) (Homo sapiens, UniProt P43405) (assay: Syk kinase inhibition test (HTRF method)). Conditions: HTRF, 100 μM ATP, 30 min room temperature, average; read-out: sykHTRF ave IC50.
Assay type: biochemical
How it was run: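 Human GST-Syk full-length (6.4 nM) phosphorylated biotin-EDPDYEWPSA-NH2 (250 nM) with 100 μM ATP in HEPES pH 7.0/MgCl2 buffer, 2% DMSO, 30 min at room temperature. EDTA stop, then HTRF detection (streptavidin-XL665, Eu anti-phosphotyrosine) after 1 h; 665/620 ratio read.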

Row | IC50 [nM] | SMILES
1 | > 1000 | CC(=O)N[C@@H](C)c1nc(C(=O)O)c(-c2cccc(Nc3cc(C)ccn3)n2)s1 [Compound A-109]
2 | 100 to 1000 | Cc1ccnc(Nc2cccc(-c3cnc([C@@H](N)CCCCN)s3)n2)c1 [Compound A-63]
3 | < 100 | Cc1ccnc(Nc2cccc(-c3cnc(N4CCC(C(C)(C)C(=O)O)CC4)s3)n2)c1 [Compound A-18, 2-methyl-2-(1-{5-[6-(4-methylpyridin-2-ylamino)pyridin-2-yl]thiazol-2-yl}piperidin-4-yl)propionic acid]
4 | > 1000 | Cc1cccnc1Nc1cccc(-c2cnc([C@H](C)O)s2)n1 [Compound A-327]

Same assay, conditions: Tables 1-x, compounds A; read-out: sykHTRF ave IC50

Row | IC50 [nM] | SMILES
5 | < 100 | CNC(=O)C1CCC(N(C)c2ncc(-c3cccc(Nc4cc(C)ccn4)n3)s2)CC1 (centres unmarked) [Compound A-492, N-methyl-4-(N′-methyl-N′-{5-[6-(4-methylpyridin-2-ylamino)pyridin-2-yl]thiazol-2-yl}amino)cyclohexanecarboxamide]
6 | 100 to 1000 | COC(=O)NCCN(c1ncc(-c2cccc(Nc3cc(C)ccn3)n2)s1)C1CCN(C(C)=O)CC1 [Compound A-522]
7 | 100 to 1000 | CN(CCO)c1ncc(-c2cccc(Nc3cc(CC(=O)O)ccn3)n2)s1 [Compound A-550]
8 | 100 to 1000 | Cc1ccnc(Nc2cccc(-c3cnc(CSc4ccc(C(=O)O)cc4)s3)n2)c1 [Compound A-619]
9 | 100 to 1000 | NC(=O)[C@@H]1CCCN1c1ncc(-c2cccc(Nc3ccccn3)n2)s1 [Compound A-690]
10 | < 100 | CC(=O)NCCNC(=O)C1CCC(N(C)c2ncc(-c3cccc(Nc4cc(C)ccn4)n3)s2)CC1 (centres unmarked) [Compound A-494, N-(2-acetylaminoethyl)-4-(N′-methyl-N′-{5-[6-(4-methylpyridin-2-ylamino)pyridin-2-yl]thiazol-2-yl}amino)cyclohexanecarboxamide]
11 | 100 to 1000 | Cc1ccnc(Nc2cccc(-c3cnc(N(C)C4CCC(C(=O)N5CCC(O)CC5)CC4)s3)n2)c1 (centres unmarked) [Compound A-495]
12 | 100 to 1000 | Cc1ccnc(Nc2cccc(-c3cnc(N4CCN(CC(=O)N(C)C)C(=O)C4)s3)n2)c1 [Compound A-467]
13 | < 100 | Cc1ccnc(Nc2cccc(-c3cnc(N4C5CCC4CC(CC(=O)O)C5)s3)n2)c1 (centres unmarked) [Compound A-649, (8-{5-[6-(4-methylpyridin-2-ylamino)pyridin-2-yl]thiazol-2-yl}-8-azabicyclo[3.2.1]oct-3-yl)acetic acid]
14 | 100 to 1000 | O=C(O)CC1CCN(c2ncc(-c3cccc(Nc4ncccn4)n3)s2)CC1 [Compound A-679]
15 | 100 to 1000 | CC(=O)NCCN(c1ncc(-c2cccc(Nc3cc(C)ccn3)n2)s1)C1CCN(C(C)=O)CC1 [Compound A-521]
16 | < 100 | CC(C)c1ccnc(Nc2cccc(-c3cnc(N4CCC(CC(=O)O)CC4)s3)n2)c1 [Compound A-711, (1-{5-[6-(4-isopropylpyridin-2-ylamino)pyridin-2-yl]thiazol-2-yl}piperidin-4-yl)acetic acid dihydrochloride]
17 | < 100 | Cc1ccnc(Nc2cccc(-c3cnc(N4CCC[C@H]4C(=O)NCCO)s3)n2)c1 [Compound A-658, N-(2-hydroxyethyl)-(S)-1-{5-[6-(4-methylpyridin-2-ylamino)pyridin-2-yl]thiazol-2-yl}pyrrolidine-2-carboxamide]
18 | 100 to 1000 | Cc1ccnc(Nc2cccc(-c3cnc(NCc4ccccc4)s3)n2)c1 [Compound A-694]
19 | 100 to 1000 | Cc1ccnc(Nc2cccc(-c3cnc(N(CC(=O)NCC(F)(F)F)C4CCCCC4)s3)n2)c1 [Compound A-665]
20 | 100 to 1000 | COC(=O)c1cccc(CN(C)c2ncc(-c3cccc(Nc4cc(C)ccn4)n3)s2)c1 [Compound A-581]
21 | 100 to 1000 | Cc1ccnc(Nc2cccc(-c3cnc(N4CCC[C@H]4C(=O)N[C@@H](C)C(=O)O)s3)n2)c1 [Compound A-566]
22 | < 100 | CN(Cc1ccc(CC(=O)O)cc1)c1ncc(-c2cccc(Nc3cc(C(F)(F)F)ccn3)n2)s1 [Compound A-651, {4-[(N-methyl-N-{5-[6-(4-trifluoromethylpyridin-2-ylamino)pyridin-2-yl]thiazol-2-yl}amino)methyl]phenyl}acetic acid]

Row | IC50 [nM] | SMILES
23 | 100 to 1000 | Cc1ccnc(Nc2cccc(-c3cnc(N4CCC(C(=O)N(CCO)CCO)CC4)s3)n2)c1 [Compound A-449]
24 | < 100 | Cc1ccnc(Nc2cccc(-c3cnc(N4CCC(=C(F)C(=O)O)CC4)s3)n2)c1 [Compound A-631, fluoro-(1-{5-[6-(4-methylpyridin-2-ylamino)pyridin-2-yl]thiazol-2-yl}piperidin-4-ylidene)acetic acid]
25 | < 100 | Cc1ccnc(Nc2cccc(-c3cnc(N(C)C(C(N)=O)C(C)C)s3)n2)c1 (centres unmarked) [Compound A-668, 3-methyl-2-(N-methyl-N-{5-[6-(4-methylpyridin-2-ylamino)pyridin-2-yl]thiazol-2-yl}amino)butylamide]
26 | 100 to 1000 | Cc1ccnc(Nc2cccc(-c3cnc(N4CCC[C@H]4C(=O)N4CCC(O)CC4)s3)n2)c1 [Compound A-659]
27 | 100 to 1000 | Cc1ccnc(Nc2cccc(-c3cnc(N4CCC(C(=O)N5CCOCC5)CC4)s3)n2)c1 [Compound A-454]
28 | 100 to 1000 | Cc1ccnc(Nc2cccc(-c3cnc(N4CCC(C5=NC(C)(C)CO5)CC4)s3)n2)c1 [Compound A-456]
29 | 100 to 1000 | Cc1ccnc(Nc2cccc(-c3cnc(CN4CCC[C@H]4C(N)=O)s3)n2)c1 [Compound A-667]
30 | 100 to 1000 | Cc1cccnc1Nc1cccc(-c2cnc(N3CCC(CC(=O)O)CC3)s2)n1 [Compound A-630]
31 | < 100 | Cc1ccnc(Nc2cccc(-c3cnc(N4CCN(CC(=O)NCCO)C(=O)C4)s3)n2)c1 [Compound A-468, N-(2-hydroxyethyl)-2-(4-{5-[6-(4-methylpyridin-2-ylamino)pyridin-2-yl]thiazol-2-yl}-2-oxopiperazin-1-yl)acetamide]
32 | < 100 | Cc1ccnc(Nc2cccc(-c3cnc(N4CCC(N(C)S(C)(=O)=O)CC4)s3)n2)c1 [Compound A-485, N-methyl-N-(1-{5-[6-(4-methylpyridin-2-ylamino)pyridin-2-yl]thiazol-2-yl}piperidin-4-yl)methanesulfonamide]
33 | < 100 | Cc1ccnc(Nc2cccc(-c3cnc(N4CCC[C@@H](c5nnn[nH]5)C4)s3)n2)c1 [Compound A-590, N-(4-methylpyridin-2-yl)-N-(6-{2-[(R)-3-(1H-tetrazol-5-yl)piperidin-1-yl]thiazol-5-yl}pyridin-2-yl)amine]
34 | < 100 | CC(C)(C(=O)O)C1CCN(c2ncc(-c3cccc(Nc4cc(CCO)ccn4)n3)s2)CC1 [Compound A-713, 2-[1-(5-{6-[4-(2-hydroxyethyl)pyridin-2-ylamino]pyridin-2-yl}thiazol-2-yl)piperidin-4-yl]-2-methylpropionic acid]
35 | < 100 | Cc1ccnc(Nc2cccc(-c3cnc(N(Cc4ccccc4)C[C@H]4CC[C@H](C(=O)O)CC4)s3)n2)c1 [Compound A-622, trans-4-[(N-benzyl-N-{5-[6-(4-methylpyridin-2-ylamino)pyridin-2-yl]thiazol-2-yl}amino)methyl]cyclohexanecarboxylic acid]
36 | 100 to 1000 | Cc1ccnc(Nc2cccc(-c3cnc(N4CCC(C(=O)NC(C)(C)CO)CC4)s3)n2)c1 [Compound A-455]
37 | < 100 | CCC(C(=O)O)C1CCN(c2ncc(-c3cccc(Nc4cc(C)ccn4)n3)s2)CC1 (centres unmarked) [Compound A-698, 2-(1-{5-[6-(4-methylpyridin-2-ylamino)pyridin-2-yl]thiazol-2-yl}piperidin-4-yl)butyric acid]
38 | < 100 | O=C(O)CC1CCN(c2ncc(-c3cccc(Nc4cnccn4)n3)s2)CC1 [Compound A-680, (1-{5-[6-(pyrazin-2-ylamino)pyridin-2-yl]thiazol-2-yl}piperidin-4-yl)acetic acid]
39 | 100 to 1000 | COCCN(C)C(=O)C1CCN(c2ncc(-c3cccc(Nc4cc(C)ccn4)n3)s2)CC1 [Compound A-451]

Same assay, conditions: Tables 2-x, thiophene compounds B; read-out: sykHTRK ave IC50

Row | IC50 [nM] | SMILES
40 | 100 to 1000 | Cc1ccnc(Nc2cccc(-c3ccc(COc4ccc(C(=O)O)cc4)s3)n2)c1 [Compound B-105]
41 | 100 to 1000 | Cc1ccnc(Nc2cccc(-c3ccc(C(=O)N[C@H](C(=O)O)C(C)C)s3)n2)c1 [Compound B-117]
42 | 100 to 1000 | Cc1ccnc(Nc2cccc(-c3ccc(C(C)OCc4ccc(C(=O)O)cc4)s3)n2)c1 (centres unmarked) [Compound B-108]
43 | 100 to 1000 | Cc1ccnc(Nc2cccc(-c3ccc(CN(Cc4ccccc4)C(=O)CCC(=O)O)s3)n2)c1 [Compound B-126]
44 | 100 to 1000 | C/C(=C\C(=O)O)c1ccc(-c2cccc(Nc3cc(C)ccn3)n2)s1 [Compound B-114]
45 | < 100 | CC(=O)N(CCC(=O)O)Cc1ccc(-c2cccc(Nc3cc(C)ccn3)n2)s1 [Compound B-124, 3-(N-acetyl-N-{5-[6-(4-methylpyridin-2-ylamino)pyridin-2-yl]thiophen-2-ylmethyl}amino)propionic acid hydrochloride]
46 | < 100 | CC(=O)N(Cc1ccc(-c2cccc(Nc3cc(C)ccn3)n2)s1)C[C@H]1CC[C@H](C(=O)O)CC1 [Compound B-120, trans-4-[(N-acetyl-N-{5-[6-(4-methylpyridin-2-ylamino)pyridin-2-yl]thiophen-2-ylmethyl}amino)methyl]cyclohexanecarboxylic acid]
47 | 100 to 1000 | Cc1ccnc(Nc2cccc(-c3ccc(CN4CCCc5ccc(C(=O)O)cc54)s3)n2)c1 [Compound B-110]
48 | 100 to 1000 | Cc1ccnc(Nc2cccc(-c3ccc(C(=O)N(C)Cc4ccc(C(=O)O)cc4)s3)n2)c1 [Compound B-122]
49 | < 100 | Cc1ccnc(Nc2cccc(-c3ccc(CN(Cc4ccc(C(=O)O)cc4)C(=O)CO)s3)n2)c1 [Compound B-128, 4-[(N-(2-hydroxyacetyl)-N-{5-[6-(4-methylpyridin-2-ylamino)pyridin-2-yl]thiophen-2-ylmethyl}amino)methyl]benzoic acid]
50 | < 100 | Cc1ccnc(Nc2cccc(-c3ccc(CNCc4ccc(C(=O)O)cc4)s3)n2)c1 [Compound B-116, 4-[({5-[6-(4-methylpyridin-2-ylamino)pyridin-2-yl]thiophen-2-ylmethyl}amino)methyl]benzoic acid]
